Laboratory results: patent US20230286919A1, “ISOQUINOLINE DERIVATIVES FOR USE IN THERAPY” (Vestlandets Innovasjonsselskap AS, priority 2020, published 2023)
pIC50: −log10 of the molar value.

Assays:
JAK3 = JAK3 (Homo sapiens, UniProt P52333); assay: SelectScreen biochemical kinase profiling, JAK3; details: JAK3, cell free; read-out: Enzyme inhibitory activity IC50
Procedure: The in vitro kinase inhibitory assays in the presence of compounds 323-1 and 323-2 were carried out according to the Z′-LYTE™ Screening and LanthaScreen Eu Kinase Binding Assays Experimental Procedures in Invitrogen (ThermoFisher Scientific, Waltham, Mass., USA). For the Z′-LYTE™ Screening profiling for FRAP1 (mTOR), JAK3, and LTK (TYK1), a mixture containing the test compounds in 100% DMSO, 2.4 μL Kinase buffer (50 mM HEPES pH 7.5, 0.01% BRIJ-35, 10 mM MgCl2, 1 mM EGTA), 5 μL 2× Peptide/Kinase Mixture, 2.5 μL 4×ATP Solution were added into black 384-well low volume NBS and bar-coded corning plate (Corning Cat. #4514) and shake the plate for 30 seconds. After incubation at RT for 60 min, 5 μL Development Reagent Solution was added into plate and shake the plate for 30 seconds, followed by Development Reaction incubation at RT for 60 min. Read on fluorescence plate reader and analyze the data. […]
Inhibition by compounds 323-1 and 323-2 of MAP2K4 (MEK4) and TGFBR1 (ALK5) was determined by […]. Inhibition by compounds 323-1 and 323-2 of FRAP1 (mTOR), JAK3, and LTK (TYK1) was determined by […] using the Adapta Universal Kinase Assay (Life Technologies). […]

AKT1 (PKB alpha) = AKT1 (PKB alpha) (Homo sapiens, UniProt P31749); assay: SelectScreen kinase profiling, AKT1; assay type: biochemical; details: read-out: Enzyme inhibitory activity IC50
ERBB4 (HER4) = ERBB4 (HER4) (Homo sapiens, UniProt Q15303); assay: SelectScreen kinase profiling, ERBB4; assay type: biochemical; details: read-out: Enzyme inhibitory activity IC50
FGFR1 = FGFR1 (Homo sapiens, UniProt P11362); assay: SelectScreen kinase profiling, FGFR1; assay type: biochemical; details: read-out: Enzyme inhibitory activity IC50
Chain of FGFR1 (P11362 22-822): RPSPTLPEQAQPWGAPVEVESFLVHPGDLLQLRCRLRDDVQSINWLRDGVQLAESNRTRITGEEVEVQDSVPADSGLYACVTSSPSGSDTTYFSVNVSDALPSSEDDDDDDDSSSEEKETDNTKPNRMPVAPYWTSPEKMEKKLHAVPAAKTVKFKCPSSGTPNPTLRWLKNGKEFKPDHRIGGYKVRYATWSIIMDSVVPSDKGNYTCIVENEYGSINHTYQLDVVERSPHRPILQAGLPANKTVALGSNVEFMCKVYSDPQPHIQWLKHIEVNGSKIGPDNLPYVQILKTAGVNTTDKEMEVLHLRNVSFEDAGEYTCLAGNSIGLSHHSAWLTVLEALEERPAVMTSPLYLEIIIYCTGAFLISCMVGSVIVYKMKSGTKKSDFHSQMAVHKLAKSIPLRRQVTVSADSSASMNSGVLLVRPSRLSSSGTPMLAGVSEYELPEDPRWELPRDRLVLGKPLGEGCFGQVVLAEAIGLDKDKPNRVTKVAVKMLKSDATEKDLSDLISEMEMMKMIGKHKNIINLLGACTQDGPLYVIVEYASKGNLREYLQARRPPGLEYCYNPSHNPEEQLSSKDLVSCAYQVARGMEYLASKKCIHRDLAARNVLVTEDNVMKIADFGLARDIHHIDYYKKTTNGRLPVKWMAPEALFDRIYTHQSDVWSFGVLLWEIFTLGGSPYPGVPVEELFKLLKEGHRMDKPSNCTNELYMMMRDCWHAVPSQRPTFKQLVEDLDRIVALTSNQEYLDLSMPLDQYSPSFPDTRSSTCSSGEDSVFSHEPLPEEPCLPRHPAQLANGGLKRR

FGFR2 = FGFR2 (Homo sapiens, UniProt P21802); assay: SelectScreen kinase profiling, FGFR2; assay type: biochemical; details: read-out: Enzyme inhibitory activity IC50
FGFR4 = FGFR4 (Homo sapiens, UniProt P22455); assay: SelectScreen kinase profiling, FGFR4; assay type: biochemical; details: read-out: Enzyme inhibitory activity IC50
FLT1 (VEGFR1) = FLT1 (VEGFR1) (Homo sapiens, UniProt P17948); assay: SelectScreen kinase profiling, FLT1; assay type: biochemical; details: read-out: Enzyme inhibitory activity IC50
Chain of FLT1 (VEGFR1) (P17948 27-1338): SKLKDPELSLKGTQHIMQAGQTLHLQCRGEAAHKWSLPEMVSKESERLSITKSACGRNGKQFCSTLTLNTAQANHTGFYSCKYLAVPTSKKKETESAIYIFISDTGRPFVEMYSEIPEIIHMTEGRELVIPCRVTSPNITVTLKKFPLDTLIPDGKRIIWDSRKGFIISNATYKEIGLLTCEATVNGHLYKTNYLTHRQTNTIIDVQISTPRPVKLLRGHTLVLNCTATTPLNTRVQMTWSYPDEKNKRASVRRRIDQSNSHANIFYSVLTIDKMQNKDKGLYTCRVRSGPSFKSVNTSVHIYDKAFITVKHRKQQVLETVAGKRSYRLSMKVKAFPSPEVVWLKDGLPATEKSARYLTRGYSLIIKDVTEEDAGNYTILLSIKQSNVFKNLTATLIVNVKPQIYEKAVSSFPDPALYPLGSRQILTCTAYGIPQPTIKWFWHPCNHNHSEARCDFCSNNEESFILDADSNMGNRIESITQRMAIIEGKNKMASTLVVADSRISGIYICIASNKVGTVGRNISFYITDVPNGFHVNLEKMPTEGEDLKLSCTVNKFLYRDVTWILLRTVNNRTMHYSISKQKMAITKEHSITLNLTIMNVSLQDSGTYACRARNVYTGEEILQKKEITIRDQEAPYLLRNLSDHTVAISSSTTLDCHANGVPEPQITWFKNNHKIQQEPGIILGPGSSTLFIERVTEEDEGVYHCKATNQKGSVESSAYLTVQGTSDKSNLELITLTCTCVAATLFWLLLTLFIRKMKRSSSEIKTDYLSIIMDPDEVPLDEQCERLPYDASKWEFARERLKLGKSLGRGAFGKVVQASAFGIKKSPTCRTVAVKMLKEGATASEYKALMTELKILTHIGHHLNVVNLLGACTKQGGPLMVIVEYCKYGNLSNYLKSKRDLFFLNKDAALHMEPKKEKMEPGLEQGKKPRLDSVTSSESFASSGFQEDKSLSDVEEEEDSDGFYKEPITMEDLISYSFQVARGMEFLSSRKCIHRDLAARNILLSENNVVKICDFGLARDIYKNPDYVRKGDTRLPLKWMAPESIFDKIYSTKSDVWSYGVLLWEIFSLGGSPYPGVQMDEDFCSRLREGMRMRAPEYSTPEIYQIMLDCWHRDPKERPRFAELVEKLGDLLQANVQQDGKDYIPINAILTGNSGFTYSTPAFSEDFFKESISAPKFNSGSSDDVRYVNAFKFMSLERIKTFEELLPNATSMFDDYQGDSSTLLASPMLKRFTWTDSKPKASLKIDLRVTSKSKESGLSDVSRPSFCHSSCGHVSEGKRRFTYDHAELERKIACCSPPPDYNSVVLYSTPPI

HCK = HCK (Homo sapiens, UniProt P08631); assay: SelectScreen kinase profiling, HCK; assay type: biochemical; details: read-out: Enzyme inhibitory activity IC50
JAK1 = JAK1 (Homo sapiens, UniProt P23458); assay: SelectScreen kinase profiling, JAK1; assay type: biochemical; details: read-out: Enzyme inhibitory activity IC50
JAK2 = JAK2 (Homo sapiens, UniProt O60674); assay: SelectScreen kinase profiling, JAK2; assay type: biochemical; details: read-out: Enzyme inhibitory activity IC50
Chain of JAK2 (O60674 whole entry): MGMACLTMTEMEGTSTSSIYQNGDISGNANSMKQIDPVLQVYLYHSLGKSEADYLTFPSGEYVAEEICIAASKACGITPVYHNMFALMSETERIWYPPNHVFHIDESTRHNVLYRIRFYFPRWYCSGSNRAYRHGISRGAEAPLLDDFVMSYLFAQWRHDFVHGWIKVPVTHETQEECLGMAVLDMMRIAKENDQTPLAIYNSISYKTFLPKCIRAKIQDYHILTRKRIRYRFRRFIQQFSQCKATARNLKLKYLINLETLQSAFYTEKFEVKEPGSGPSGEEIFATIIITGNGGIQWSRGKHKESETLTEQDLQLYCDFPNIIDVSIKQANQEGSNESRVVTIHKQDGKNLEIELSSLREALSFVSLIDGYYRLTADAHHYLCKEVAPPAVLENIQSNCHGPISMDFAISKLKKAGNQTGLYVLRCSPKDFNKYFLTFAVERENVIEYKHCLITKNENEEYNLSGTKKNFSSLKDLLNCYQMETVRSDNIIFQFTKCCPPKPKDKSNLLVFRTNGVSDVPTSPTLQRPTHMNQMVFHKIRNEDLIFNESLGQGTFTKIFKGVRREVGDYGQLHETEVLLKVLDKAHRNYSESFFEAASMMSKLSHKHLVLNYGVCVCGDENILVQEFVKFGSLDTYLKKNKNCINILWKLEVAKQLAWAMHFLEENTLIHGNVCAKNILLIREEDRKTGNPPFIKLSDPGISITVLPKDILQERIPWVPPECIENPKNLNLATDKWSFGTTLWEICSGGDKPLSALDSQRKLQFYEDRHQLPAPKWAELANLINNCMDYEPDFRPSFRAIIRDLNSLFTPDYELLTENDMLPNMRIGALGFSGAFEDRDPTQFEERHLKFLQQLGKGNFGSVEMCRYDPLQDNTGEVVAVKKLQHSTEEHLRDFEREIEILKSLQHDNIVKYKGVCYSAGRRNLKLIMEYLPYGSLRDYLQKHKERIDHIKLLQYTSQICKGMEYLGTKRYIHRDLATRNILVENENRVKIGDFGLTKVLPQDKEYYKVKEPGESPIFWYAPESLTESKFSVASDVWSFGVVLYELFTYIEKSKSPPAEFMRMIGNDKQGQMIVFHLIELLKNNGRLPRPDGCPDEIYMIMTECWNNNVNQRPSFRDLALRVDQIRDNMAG

MAPK3 (ERK1) = MAPK3 (ERK1) (Homo sapiens, UniProt P27361); assay: SelectScreen kinase profiling, MAPK3; assay type: biochemical; details: read-out: Enzyme inhibitory activity IC50
MAPK9 (JNK2) = MAPK9 (JNK2) (Homo sapiens, UniProt P45984); assay: SelectScreen kinase profiling, MAPK9; assay type: biochemical; details: read-out: Enzyme inhibitory activity IC50
Chain of MAPK9 (JNK2) (P45984 whole entry): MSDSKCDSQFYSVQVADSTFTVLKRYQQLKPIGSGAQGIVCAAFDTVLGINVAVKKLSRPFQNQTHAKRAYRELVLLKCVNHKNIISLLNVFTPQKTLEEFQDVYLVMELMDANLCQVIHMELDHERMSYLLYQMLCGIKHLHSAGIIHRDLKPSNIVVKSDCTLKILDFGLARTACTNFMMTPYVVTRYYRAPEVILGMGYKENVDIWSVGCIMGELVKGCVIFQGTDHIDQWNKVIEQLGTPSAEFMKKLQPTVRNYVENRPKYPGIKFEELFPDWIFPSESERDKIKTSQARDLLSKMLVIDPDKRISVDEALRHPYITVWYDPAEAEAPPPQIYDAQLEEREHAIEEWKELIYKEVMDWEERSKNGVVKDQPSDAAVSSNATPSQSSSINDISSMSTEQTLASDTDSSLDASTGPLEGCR

PDGFRA (PDGFR alpha) = PDGFRA (PDGFR alpha) (Homo sapiens, UniProt P16234); assay: SelectScreen kinase profiling, PDGFRA; assay type: biochemical; details: read-out: Enzyme inhibitory activity IC50
PRKCD (PKC delta) = PRKCD (PKC delta) (Homo sapiens, UniProt Q05655); assay: SelectScreen kinase profiling, PRKCD; assay type: biochemical; details: read-out: Enzyme inhibitory activity IC50
Chain of PRKCD (PKC delta) (Q05655 whole entry): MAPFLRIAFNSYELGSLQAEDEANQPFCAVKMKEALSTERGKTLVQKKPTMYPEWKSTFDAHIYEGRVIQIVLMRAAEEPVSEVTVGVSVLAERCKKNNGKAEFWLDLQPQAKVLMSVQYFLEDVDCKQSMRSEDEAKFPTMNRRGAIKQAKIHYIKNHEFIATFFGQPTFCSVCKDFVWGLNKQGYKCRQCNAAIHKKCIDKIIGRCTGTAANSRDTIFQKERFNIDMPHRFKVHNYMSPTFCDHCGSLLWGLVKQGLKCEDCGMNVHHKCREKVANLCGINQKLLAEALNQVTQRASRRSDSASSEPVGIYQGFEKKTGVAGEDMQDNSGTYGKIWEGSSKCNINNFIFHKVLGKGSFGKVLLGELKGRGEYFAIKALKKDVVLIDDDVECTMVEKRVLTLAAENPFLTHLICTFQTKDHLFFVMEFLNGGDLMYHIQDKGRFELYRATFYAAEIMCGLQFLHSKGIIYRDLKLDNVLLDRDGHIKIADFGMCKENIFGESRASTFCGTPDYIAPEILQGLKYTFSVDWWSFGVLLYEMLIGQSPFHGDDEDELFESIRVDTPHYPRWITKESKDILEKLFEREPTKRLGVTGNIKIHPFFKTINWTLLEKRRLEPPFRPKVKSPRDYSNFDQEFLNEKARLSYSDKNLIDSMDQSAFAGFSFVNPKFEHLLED

SRC N1 = SRC N1 (Homo sapiens, UniProt P12931); assay: SelectScreen kinase profiling, SRC N1; assay type: biochemical; details: read-out: Enzyme inhibitory activity IC50
Chain of SRC N1 (P12931 1-542 isoform P12931-2): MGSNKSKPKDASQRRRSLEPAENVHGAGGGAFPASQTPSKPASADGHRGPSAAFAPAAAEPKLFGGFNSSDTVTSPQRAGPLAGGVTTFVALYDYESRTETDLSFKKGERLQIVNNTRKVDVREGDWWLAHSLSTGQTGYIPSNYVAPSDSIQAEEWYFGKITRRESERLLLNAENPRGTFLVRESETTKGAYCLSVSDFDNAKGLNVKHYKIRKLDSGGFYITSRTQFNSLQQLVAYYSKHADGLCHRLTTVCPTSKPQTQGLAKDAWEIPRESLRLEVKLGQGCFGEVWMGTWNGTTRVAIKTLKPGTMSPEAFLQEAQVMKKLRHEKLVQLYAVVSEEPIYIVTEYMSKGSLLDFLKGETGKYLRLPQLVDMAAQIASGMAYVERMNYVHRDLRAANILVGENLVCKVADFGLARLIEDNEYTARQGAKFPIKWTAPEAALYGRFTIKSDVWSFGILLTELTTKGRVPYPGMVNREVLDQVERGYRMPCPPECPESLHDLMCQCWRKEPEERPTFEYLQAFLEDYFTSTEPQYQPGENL

SRC = SRC (Homo sapiens, UniProt P12931); assay: SelectScreen kinase profiling, SRC; assay type: biochemical; details: read-out: Enzyme inhibitory activity IC50
TGFBR2 = TGFBR2 (Homo sapiens, UniProt P37173); assay: SelectScreen kinase profiling, TGFBR2; assay type: biochemical; details: read-out: Enzyme inhibitory activity IC50
[1] = tested on: STAT3 target genes (Cyclin D1, BCL-XL, MCL1, Survivin, PARP); assay: Western blot of STAT3 target gene proteins; assay type: cell-based, human
Procedure: As reported, aberrant STAT3 regulates the expression of downstream target genes involved in anti-apoptosis (Bcl-2, Mcl-1, survivin, and Bcl-xL), cell cycle (cyclin D1 and c-Myc), angiogenesis (VEGF and HIF1α), invasion and metastasis (MMP-1, MMP-2, MMP-9) and the inhibition of host immune surveillance. To further identify the characterization of the properties of 323-1 and 323-2, DU145, EPT3-M1-STAT3 and LNCaP cells were treated with 323-1 and 323-2 followed by western blotting.
To obtain the results shown in FIG. 13, EPT3M1-STAT3 or LNCaP cells were treated with DMSO, 20 μM of compound 323-1, or 20 μM of compound 323-2 for 48 hrs, respectively. Lysates were analysed and loaded to western blotting.

[2] = EPT3-M1-STAT3 and LNCaP cells, 20 μM, 48 hrs

C[C@@H]1CCC(c2cc3c4c(cncc4c2)[C@H](C)C3)=C1C=O [323-1, (15R,2R)-Delavatine A]
pIC50 (JAK3): 5.37
pIC50 (AKT1 (PKB alpha)): < 4.70
pIC50 (ERBB4 (HER4)): < 4.70
pIC50 (FGFR1): < 4.70
pIC50 (FGFR2): < 4.70
pIC50 (FGFR4): < 4.70
pIC50 (FLT1 (VEGFR1)): < 4.70
pIC50 (HCK): < 4.70
pIC50 (JAK1): < 4.70
pIC50 (JAK2): < 4.70
pIC50 (MAPK3 (ERK1)): < 4.70
pIC50 (MAPK9 (JNK2)): < 4.70
pIC50 (PDGFRA (PDGFR alpha)): < 4.70
pIC50 (PRKCD (PKC delta)): < 4.70
pIC50 (SRC N1): < 4.70
pIC50 (SRC): < 4.70
pIC50 (TGFBR2): < 4.70

C[C@@H]1CCC(c2cc3c4c(cncc4c2)[C@@H](C)C3)=C1C=O [323-2, (15S,2R)-Delavatine A]
pIC50 (JAK3): 4.94
pIC50 (AKT1 (PKB alpha)): < 4.70
pIC50 (ERBB4 (HER4)): < 4.70
pIC50 (FGFR1): < 4.70
pIC50 (FGFR2): < 4.70
pIC50 (FGFR4): < 4.70
pIC50 (FLT1 (VEGFR1)): < 4.70
pIC50 (HCK): < 4.70
pIC50 (JAK1): < 4.70
pIC50 (JAK2): < 4.70
pIC50 (MAPK3 (ERK1)): < 4.70
pIC50 (MAPK9 (JNK2)): < 4.70
pIC50 (PDGFRA (PDGFR alpha)): < 4.70
pIC50 (PRKCD (PKC delta)): < 4.70
pIC50 (SRC N1): < 4.70
pIC50 (SRC): < 4.70
pIC50 (TGFBR2): < 4.70
Protein level of STAT3 target gene MCL1 [1, 2]: repressed
Protein level of Survivin or PARP [1, 2]: but not Survivin or PARP
Expression of Cyclin D1 ([1]; LNCaP cells): down-regulated dose-dependently
